The subject of data set [1] is mice. Description: 4 week oral toxicity study with UPA in mice - organ weights. The class given is in vivo. The conditions noted are these: 4 week oral toxicity study in mice. How it is done:
During a 104 week rat carcinogenicity assay, we observed seminal vesicles and prostate contraction at dose-levels of 1 (seminal vesicles, only), 3 and 10 mg/kg/day (PGL09-005). Similarly, during 4 and 26 week assays in the mouse, decreases in epididymidis weights were recorded at dose-levels ranging between 15 and 300 mg/kg/day (Tables 1 and 2). Ulipristal Acetate Anti-Androgenic Effect in a 4 Week Oral Toxicity Study in Mice

The target in data set [2] is T1, glucocorticoid receptor (Homo sapiens, UniProt P04150).
T1 sequence (P04150 1-777): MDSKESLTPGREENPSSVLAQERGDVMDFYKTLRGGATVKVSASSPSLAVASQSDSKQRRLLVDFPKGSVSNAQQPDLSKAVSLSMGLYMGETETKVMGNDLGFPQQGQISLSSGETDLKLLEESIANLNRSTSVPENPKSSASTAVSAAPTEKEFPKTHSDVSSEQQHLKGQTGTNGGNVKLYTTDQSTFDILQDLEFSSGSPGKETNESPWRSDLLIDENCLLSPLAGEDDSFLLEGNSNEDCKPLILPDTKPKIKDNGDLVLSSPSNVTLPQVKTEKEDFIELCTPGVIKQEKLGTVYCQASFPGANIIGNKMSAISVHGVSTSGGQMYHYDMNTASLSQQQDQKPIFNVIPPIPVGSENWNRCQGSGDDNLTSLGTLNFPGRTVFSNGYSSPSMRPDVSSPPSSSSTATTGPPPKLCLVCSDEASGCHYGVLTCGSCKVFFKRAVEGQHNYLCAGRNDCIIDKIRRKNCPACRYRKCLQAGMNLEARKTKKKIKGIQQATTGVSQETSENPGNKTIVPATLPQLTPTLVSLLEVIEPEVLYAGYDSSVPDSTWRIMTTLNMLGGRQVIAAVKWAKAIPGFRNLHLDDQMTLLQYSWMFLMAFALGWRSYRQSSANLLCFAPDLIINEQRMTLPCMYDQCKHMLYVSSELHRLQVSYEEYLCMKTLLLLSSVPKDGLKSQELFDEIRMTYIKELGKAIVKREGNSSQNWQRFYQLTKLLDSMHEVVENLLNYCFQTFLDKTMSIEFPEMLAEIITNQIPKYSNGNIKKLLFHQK
Description: in vitro nuclear receptor selectivity profile - glucocorticoid receptor. Format: binding.

Data set [3] relates to mice. Description: 26 week oral carcinogenicity study with UPA in mice - organ weights. The class given is in vivo. The note with it: 26 week oral carcinogenicity study in mice. How it is done: During a 104 week rat carcinogenicity assay, we observed seminal vesicles and prostate contraction at dose-levels of 1 (seminal vesicles, only), 3 and 10 mg/kg/day (PGL09-005). Similarly, during 4 and 26 week assays in the mouse, decreases in epididymidis weights were recorded at dose-levels ranging between 15 and 300 mg/kg/day (Tables 1 and 2). Ulipristal Acetate Anti-Androgenic Effect in a 26 Week Oral Carcinogenicity Study in Mice

Data set [4] deals with T2, progesterone receptor (Homo sapiens, UniProt P06401).
T2 sequence (P06401 1-933): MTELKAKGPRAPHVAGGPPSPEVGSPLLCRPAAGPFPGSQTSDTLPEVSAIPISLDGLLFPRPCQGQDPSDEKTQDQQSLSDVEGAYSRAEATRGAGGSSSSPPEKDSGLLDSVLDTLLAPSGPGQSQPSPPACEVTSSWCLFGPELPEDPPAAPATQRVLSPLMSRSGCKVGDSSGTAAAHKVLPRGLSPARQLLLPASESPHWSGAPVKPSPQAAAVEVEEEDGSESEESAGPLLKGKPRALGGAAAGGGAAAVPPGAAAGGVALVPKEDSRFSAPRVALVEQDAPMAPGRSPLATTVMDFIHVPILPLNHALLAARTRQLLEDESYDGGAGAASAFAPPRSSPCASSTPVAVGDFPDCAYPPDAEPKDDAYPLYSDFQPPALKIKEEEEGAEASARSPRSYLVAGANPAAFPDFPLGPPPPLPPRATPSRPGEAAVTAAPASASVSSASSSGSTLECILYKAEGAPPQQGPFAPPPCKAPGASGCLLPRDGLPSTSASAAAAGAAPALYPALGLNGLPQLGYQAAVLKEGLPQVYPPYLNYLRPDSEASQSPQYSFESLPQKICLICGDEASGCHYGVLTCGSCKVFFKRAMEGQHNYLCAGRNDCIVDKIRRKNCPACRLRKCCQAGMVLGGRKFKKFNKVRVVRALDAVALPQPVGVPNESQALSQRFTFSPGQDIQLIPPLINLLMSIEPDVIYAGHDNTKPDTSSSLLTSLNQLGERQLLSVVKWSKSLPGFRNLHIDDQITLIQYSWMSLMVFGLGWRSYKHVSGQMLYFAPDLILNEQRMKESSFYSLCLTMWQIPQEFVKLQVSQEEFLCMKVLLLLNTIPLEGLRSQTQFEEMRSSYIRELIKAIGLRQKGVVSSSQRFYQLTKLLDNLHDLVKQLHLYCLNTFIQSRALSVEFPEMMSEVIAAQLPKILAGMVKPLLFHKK
Description: in vitro nuclear receptor selectivity profile - progesterone receptor. Format: binding.

Data set [5] can be described thus: in vivo activity profile.
Data set [6] concerns oestrogen receptors. Description: in vitro nuclear receptor selectivity profile - oestrogen receptors. Format: binding.
For data set [7], the system named is rat. Put plainly: 104 week rat carcinogenicity assay (PGL09-005). The conditions noted are these: 104 weeks. The class given is in vivo. How it is done: During a 104 week rat carcinogenicity assay, we observed seminal vesicles and prostate contraction at dose-levels of 1 (seminal vesicles, only), 3 and 10 mg/kg/day (PGL09-005). Similarly, during 4 and 26 week assays in the mouse, decreases in epididymidis weights were recorded at dose-levels ranging between 15 and 300 mg/kg/day (Tables 1 and 2).

For data set [8], the target named is T3, androgen receptor (Homo sapiens, UniProt P10275).
T3 sequence (P10275 1-920): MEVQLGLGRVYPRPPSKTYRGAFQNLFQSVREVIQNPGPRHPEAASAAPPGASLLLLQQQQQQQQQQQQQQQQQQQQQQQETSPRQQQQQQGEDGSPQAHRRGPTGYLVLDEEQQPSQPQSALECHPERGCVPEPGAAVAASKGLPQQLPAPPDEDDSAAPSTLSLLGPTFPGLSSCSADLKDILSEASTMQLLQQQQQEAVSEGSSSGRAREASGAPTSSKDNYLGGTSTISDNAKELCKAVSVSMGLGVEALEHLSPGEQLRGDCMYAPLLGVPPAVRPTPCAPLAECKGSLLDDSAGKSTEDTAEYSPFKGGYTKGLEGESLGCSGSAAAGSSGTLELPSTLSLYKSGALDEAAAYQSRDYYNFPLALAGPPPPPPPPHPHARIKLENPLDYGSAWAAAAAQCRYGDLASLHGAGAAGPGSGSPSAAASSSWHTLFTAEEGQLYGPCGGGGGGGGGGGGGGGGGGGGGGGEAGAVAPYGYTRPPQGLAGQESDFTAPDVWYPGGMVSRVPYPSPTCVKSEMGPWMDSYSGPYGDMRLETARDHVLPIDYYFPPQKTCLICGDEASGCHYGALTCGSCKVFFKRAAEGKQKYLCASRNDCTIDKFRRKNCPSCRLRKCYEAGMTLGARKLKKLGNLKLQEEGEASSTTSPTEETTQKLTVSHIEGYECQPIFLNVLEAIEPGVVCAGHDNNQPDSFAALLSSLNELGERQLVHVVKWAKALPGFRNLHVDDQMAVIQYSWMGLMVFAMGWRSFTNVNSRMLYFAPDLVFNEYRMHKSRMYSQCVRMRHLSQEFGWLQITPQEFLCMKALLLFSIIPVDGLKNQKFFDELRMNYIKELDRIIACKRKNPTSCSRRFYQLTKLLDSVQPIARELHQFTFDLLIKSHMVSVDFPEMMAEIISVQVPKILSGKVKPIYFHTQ
Put plainly: in vitro nuclear receptor selectivity profile - androgen receptor. Format: binding.

Consider `CC(=O)O[C@]1(C(C)=O)CC[C@H]2[C@@H]3CCC4=CC(=O)CCC4=C3[C@@H](c3ccc(N(C)C)cc3)C[C@@]21C` [UPA, Ulipristal acetate], for which the “interpretation of decrease in organ weight” value in data set [1] and in data set [3] was “suggestive of anti-androgenic like effects” in each case. Besides, the “affinity for the glucocorticoid receptor” value in data set [2] is reported as “high affinity”. The “affinity for the progesterone receptor” value in data set [4] is given as “high affinity”. The “in vivo anti-androgenic activity” value in data set [5] is listed as “anti-androgenic effects”. Also, in data set [5], the “in vivo anti-glucocorticoid activity” value is recorded as “no significant anti-glucocorticoid effects”. Further, in data set [6], the “affinity for the oestrogen receptors” value was “no affinity”. In addition, the seminal vesicles finding result in data set [7] (dose-levels of 1, 3 and 10 mg/kg/day) is “contraction”. For the same molecule, the prostate finding result in data set [7] (dose-levels of 3 and 10 mg/kg/day (not at 1 mg/kg/day)) is listed as “contraction”. Also, the “affinity for the androgen receptor” value in data set [8] was “much lower affinity”.

The values above are taken from patent US20150209373A1, “Progesterone Receptor Modulators for Use in Preventing or Treating Androgen Mediated Diseases” (PregLem SA, priority 2012, published 2015).
